# Biological target: PRMT5/MEP50 complex (Homo sapiens, UniProt O14744)
# Assay: Chemiluminescent Assay: A PRMT5 chemiluminescent assay was used to measure the […] activity of PRMT5. Biotinylated histone peptides were synthesized and attached to 384-well plates. Compound serial dilutions were performed and added to the assay plate. Histone H4 monomethyl R3 antibody was obtained from Abcam. A master mix for each well was prepared and human PRMT5/MEP50 (expressed in HEK293 cells) diluted in assay buffer to a concentration of 5 ng/μL. The reaction was incubated and slowly rotated for 60 minutes at the point of PRMT5/MEP50 addition. The supernatant from the wells was removed and blocking buffer was added to each well and rotated for 10 minutes. The primary antibody was diluted and added to every well for 60 minutes, before it was removed and the wells washed. The horse radish peroxidase (HRP)-coupled secondary antibody was diluted and added to each well with an incubation time of 30 minutes. The HRP chemiluminescent substrate was added to every well. The plate was read on a Flourstar Omega BMG Labtech instrument (Ortenberg, Germany) and the analysis of IC50 was performed using the Flourstar Omega BMG Labtech software.
# Format: biochemical
# Chain of PRMT5/MEP50 complex (O14744 whole entry): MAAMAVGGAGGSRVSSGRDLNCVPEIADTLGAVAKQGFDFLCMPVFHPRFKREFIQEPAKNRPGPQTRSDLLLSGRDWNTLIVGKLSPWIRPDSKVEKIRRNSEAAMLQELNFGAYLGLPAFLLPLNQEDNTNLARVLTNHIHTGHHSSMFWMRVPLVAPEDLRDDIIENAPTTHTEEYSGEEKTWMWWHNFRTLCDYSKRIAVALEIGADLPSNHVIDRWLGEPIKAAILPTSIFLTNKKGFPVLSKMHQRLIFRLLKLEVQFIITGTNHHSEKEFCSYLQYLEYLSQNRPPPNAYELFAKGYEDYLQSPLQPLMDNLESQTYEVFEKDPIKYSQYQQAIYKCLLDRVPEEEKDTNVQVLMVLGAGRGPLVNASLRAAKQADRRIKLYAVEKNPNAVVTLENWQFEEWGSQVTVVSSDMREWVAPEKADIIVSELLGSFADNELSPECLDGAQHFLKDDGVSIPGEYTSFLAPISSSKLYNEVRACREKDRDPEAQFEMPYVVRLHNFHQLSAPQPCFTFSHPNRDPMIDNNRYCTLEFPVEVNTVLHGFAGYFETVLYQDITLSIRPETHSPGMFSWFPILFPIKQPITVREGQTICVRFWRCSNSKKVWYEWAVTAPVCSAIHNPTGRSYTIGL
# Chain of PRMT5/MEP50 complex (Q9BQA1 whole entry, further chain): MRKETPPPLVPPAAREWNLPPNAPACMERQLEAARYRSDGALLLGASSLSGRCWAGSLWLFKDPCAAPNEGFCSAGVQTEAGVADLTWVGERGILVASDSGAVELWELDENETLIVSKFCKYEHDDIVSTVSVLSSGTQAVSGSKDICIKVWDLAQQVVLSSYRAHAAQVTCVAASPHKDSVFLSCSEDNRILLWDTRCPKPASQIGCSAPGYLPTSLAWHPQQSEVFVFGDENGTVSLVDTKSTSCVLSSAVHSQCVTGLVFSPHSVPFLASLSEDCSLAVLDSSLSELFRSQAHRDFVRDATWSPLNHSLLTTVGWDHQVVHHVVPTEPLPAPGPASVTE
row,SMILES,IC50 [nM]
1,O=C(NCC(O)CN1CCc2[nH]c3ccccc3c2C1)c1ccc(C(=O)N2C3CCC2COC3)cc1 (centres undefined),1730
2,Cn1c2c(c3ccccc31)CN(CC(O)CNC(=O)c1ccc(C(=O)N3C4CCC3COC4)cc1)CC2 (centres undefined),3340
3,CN1CCN(c2nc(NC3CCC3)cc(C(=O)NCC(O)CN3CCc4[nH]c5ccccc5c4C3)n2)CC1 (centres undefined),528
4,O=C(NCC(O)CN1CCc2[nH]c3ccccc3c2C1)c1cc(NC2CCC2)ncn1 (centres undefined),1690
